{"source": "patent US8103455B2", "about": "“Method of assessing the proliferation or differentiation behaviour of a population of target cells in a biological system” (Medical Research Council, priority 2006, dated 2012)", "assay_type_in_all_cases": "in vivo, mouse", "key": {"basal cells of tail IFE": {"system": "basal cells of tail IFE", "test": "Proliferation rate of basal cells by Ki67 staining", "settings": "ATRA treated mice, topical; controls 16.5+/-2.2%", "experimental": "(§1) Clone size was determined by Z stack confocal imaging of at least 50 clones containing at least one basal cell in each mouse at each time point. […] The percentage of Ki67 positive cells was determined by imaging at least 1500 basal cells in multiple fields from at least 3 mice.\n(§2) All trans retinoic acid (Sigma) in ethanol, propanediol 70:30 was applied topically to tail skin and shaved back skin (0.5 ml each) 5 days a week for 3 months at 0.33 mM or daily for 2 weeks at 1 mM.\n(§3) Two protocols were used: (1) Mice were induced and after a three month interval treated with either 0.33 mM all trans retinoic acid (ATRA) or vehicle alone for a further 3 months. (2) Mice were treated with 1 mM all trans retinoic acid (ATRA) or vehicle alone for 2 weeks, beginning immediately after induction."}, "[1]": {"system": "mitotic spindles of tail IFE", "test": "Analysis of mitotic spindle orientation in DAPI stained epidermal wholemounts", "settings": "ATRA treatment, topical (3 months per figure legend)", "experimental": "as §2, §3"}, "[2]": {"system": "epidermal progenitor cells (EPC) of tail epidermis", "test": "Clone size distribution of EYFP-labelled epidermal progenitor cell clones after topical retinoid treatment, fitted to the model", "experimental": "All animal experiments were conducted as specified by Home Office Project License. The generation of AhcreERT and R26EYFP/EYFP mice has been described previously^15,16. […] Epidermal wholemounts were prepared as described^14. For analysis of back epidermis, 60 μm cryosections were used.\nas §1, §2, §3"}}}
{"smiles": "CC1=C(/C=C/C(C)=C/C=C/C(C)=C/C(=O)O)C(C)(C)CCC1", "note": "[ATRA, all trans retinoic acid]", "values": [{"measurement": "proliferation rate assessed by Ki67 staining (mean+/-sem)", "setting": "basal cells of tail IFE", "value": "57.0+/−3.7%"}, {"measurement": "orientation of mitotic spindles", "setting": "[1]", "value": "did not alter the orientation of mitotic spindles"}, {"measurement": "AD (asymmetric division) rate from fit of model to two cell clone distribution", "setting": "[2]; at two weeks, both protocols, unchanged from wildtype", "value": 84, "unit": "%"}, {"measurement": "clone size", "setting": "[2]; both protocols: 0.33 mM for 3 months starting 3 months after induction, 1 mM for 2 weeks from induction, versus vehicle", "value": "increase substantially"}, {"measurement": "EPC division rate, factor of increase", "setting": "[2]; fit of model to two cell clone distribution at two weeks, vehicle factor 1.4", "value": 22}]}
